# Experimental data as given in US20070066572A1, “Neuroprotection by positively-charged nitroxides” (priority 2005, published 2007).
# Legend:
# [1] = test system: Bovine aortic endothelial cells (BAECs); test: Glu/GO-induced caspase-3 activity (apoptosis) in BAECs; type: cell-based
# Description: Cell line: Bovine aortic endothelial cells (BAECs; American Type Culture Collection) were grown to confluence in DMEM (Calbiochem; San Diego, Calif.) containing 10% fetal bovine serum (FBS; Invitrogen; Carlsbad, Calif.) insulin (10 μg/ml; Invitrogen), transferrin (5 μg/ml; Invitrogen), glutamine (4 mM; Sigma-Aldrich), penicillin (100 units/ml; Sigma-Aldrich) and streptomycin (100 μg/ml; Sigma-Aldrich) and were incubated at 37° C. in a humidified atmosphere of 5% CO2 and 95% air. The BAECs were used between passages four and twelve, as described by Balla G, et al., “Ferritin: a cytoprotective antioxidant strategem of endothelium,” J. Biol. Chem. 267:18148-18153 (1992). On the day of treatment, the medium was replaced with DMEM containing 2% FBS.
# Glucose/Glucose Oxidase (Glu/GO): GO was obtained from Sigma Aldrich (Milwaukee, Wis.); 13-hydroperoxyoctadecadienoic acid (13-HpODE, a lipoxygenase-catalyzed oxidative metabolite of linolieic acid) and β-hydroxyoctadecadienoic acid (13-HODE, […]) were obtained from Cayman Chemical Co. (Ann Arbor, Mich.); 2′,7′-dichlorodihydrofluorescein diacetate (DCFH-DA) was obtained from Molecular Probes (Eugene, Oreg.); N-carbobenzoxyl-L-leucinyl-L-norleucinal (MG-132) was obtained from Biomol (Plymouth Meeting, Pa.); and clastolactacystin-α-lactone (Lac) was obtained from Sigma Aldrich.
# BAECs were incubated with Glu/GO (20 μM), 13-HpODE (25 μM) or 13-HODE (25 μM) for different time periods (0, 2, 4, 8 or 16 hours).
# Caspase-3 Activity: After treatment with Glu-GO and antioxidants, cells were washed twice with Dulbecco's phosphate-buffered saline (DPBS) and lysed with cell lysis buffer. Caspase-3 activity was measured with acetyl Asp-Glu-Val-Asp 7-amido-4-methylcoumarin (Ac-DEVD-AFC), as described in a kit from Sigma Aldrich. Caspase-3 hydrolyzes Ac-DEVD-AFC to release a fluorescent moiety, 7-amino-4-methylcoumarin (AMC). Briefly, treated cells were suspended in 100 μl of lysis buffer and passed through a 24-guage needle 10 times to ensure complete lysis. The resulting lysate was centrifuged at 4° C. at 10,000 rmp. […]
# [2] = test system: hSOD1-G93A mice; test: In vivo attenuation of ALS symptoms in transgenic G93A-SOD1 mice; conditions: 40 mg/kg or about 1 mg/mouse/day in drinking water
# From the text: Animal model: A transgenic mouse line overexpressing mutant G93A-SOD1 gene (TgN(SOD1-G93A)1Gur, herein called hSOD1-G93A, a high expression mouse line) and the mating pairs were purchased from Jackson Laboratory (Bar Harbor, Me.). Mice were housed and bred as described previously (Liu R, et al., “Enhanced oxygen radical production in a transgenic mouse model of familial amyotrophic lateral sclerosis,” Ann. Neurol. 44:763-70 (1998)) and in accordance with the University of North Dakota Animal Care and Use Committee guidelines.
# At age 40-50 days, transgenic littermates (wild-type normal mice and hSOD1-G93A mice) were divided into three groups (n=10) and administered with vehicle alone (regular drinking water), Mito-Tempol (40 mg/kg or about 1 mg/mouse/day) or Tempol (40 mg/kg or about 1 mg/mouse/day), respectively. The onset of disease was defined as the day when a sharp decrease in muscle strength was detected. The initial symptoms of hind leg paralysis was considered as the disease progression as well.
smiles,measurement,setting,value
CC1(C)CC(OCCCCC[P+](c2ccccc2)(c2ccccc2)c2ccccc2)CC(C)(C)N1[O].[Br-] [Mito-Tempol],Glu/GO-mediated caspase-3 activation,"[1]; BAECs pretreated at 0.5 and 1 μM, Glu/GO eight hours, FIG. 5",greatly inhibited
same,potency in inhibiting peroxide-induced apoptosis relative to Tempol,"[1]; BAECs, Glu/GO, FIG. 5",more potent than Tempol
same,endothelial oxidative damage and apoptosis,[1]; Mito-Tempol prepared by the modified method,inhibited endothelial oxidative damage and apoptosis
same,disease progression,[2]; FIG. 2,delayed disease progression
same,lifespan,[2]; FIG. 3,increased the lifespan
same,running activity as measured by Rotarod (motor function),[2]; FIG. 4,promoted the running activity
